Test results as given in patent US20220151230A1, “SPECIFICALLY SUBSTITUTED 3-(2-HALOGEN-6-ALKYL-4-PROPINYLPHENYL)-3-PYRROLIN-2-ONES AND TO THE USE THEREOF AS HERBICIDES” (Bayer Aktiengesellschaft, priority 2019, published 2022).

Columns and labels:
[1] = system: ALOMY; test: Pre-emergence herbicidal effect against ALOMY; format: in vivo, Alopecurus myosuroides; conditions: 320 g/ha, scored visually after 3 weeks vs untreated controls, 100% = plants have died
Description: (§1) Seeds of monocotyledonous and dicotyledonous weed plants and crop plants are laid out in sandy loam soil in wood-fiber pots and covered with soil. The compounds of the invention, formulated in the form of wettable powders (WP) or as emulsion concentrates (EC), are then applied to the surface of the covering soil as aqueous suspension or emulsion at a water application rate equating to 600 to 800 L/ha with addition of 0.2% wetting agent.
(§2) After the treatment, the pots are placed in a greenhouse and kept under good growth conditions for the trial plants. The damage to the test plants is scored visually after a test period of 3 weeks by comparison with untreated controls (herbicidal activity in percent (%): 100% activity=the plants have died, 0% activity=like control plants).

[2] = system: AVEFA; test: Pre-emergence herbicidal effect against AVEFA; format: in vivo, Avena fatua; conditions: 320 g/ha, scored visually after 3 weeks vs untreated controls, 100% = plants have died
Description: as §1, §2

[3] = system: DIGSA; test: Pre-emergence herbicidal effect against DIGSA; format: in vivo, Digitaria sanguinalis; conditions: 320 g/ha, scored visually after 3 weeks vs untreated controls, 100% = plants have died
Description: as §1, §2

[4] = system: LOLRI; test: Pre-emergence herbicidal effect against LOLRI; format: in vivo, Lolium rigidum; conditions: 320 g/ha, scored visually after 3 weeks vs untreated controls, 100% = plants have died
Description: as §1, §2

[5] = system: SETVI; test: Pre-emergence herbicidal effect against SETVI; format: in vivo, Setaria viridis; conditions: 320 g/ha, scored visually after 3 weeks vs untreated controls, 100% = plants have died
Description: as §1, §2

[6] = system: ECHCG; test: Pre-emergence herbicidal effect against ECHCG; format: in vivo, Echinochloa crus-galli; conditions: 320 g/ha, scored visually after 3 weeks vs untreated controls, 100% = plants have died
Description: as §1, §2

[7] = system: ALOMY; test: Post-emergence herbicidal effect against ALOMY; format: in vivo, Alopecurus myosuroides; conditions: one-leaf stage, 80 g/ha, assessed visually after about 3 weeks vs untreated controls, 100% = plants have died
Method: (§3) Seeds of monocotyledonous and dicotyledonous weed and crop plants are laid out in sandy loam soil in wood-fiber pots, covered with soil and cultivated in a greenhouse under good growth conditions. 2 to 3 weeks after sowing, the test plants are treated at the one-leaf stage. The compounds of the invention, formulated in the form of wettable powders (WP) or as emulsion concentrates (EC), are then sprayed onto the green parts of the plants as aqueous suspension or emulsion at a water application rate equating to 600 to 800 l/ha with addition of 0.2% wetting agent. After the test plants have been left to stand in the greenhouse under optimal growth conditions for about 3 weeks, the action of the preparations is assessed visually in comparison to untreated controls (herbicidal action in percent (%): 100% activity=the plants have died, 0% activity=like control plants).

[8] = system: SETVI; test: Post-emergence herbicidal effect against SETVI; format: in vivo, Setaria viridis; conditions: one-leaf stage, 80 g/ha, assessed visually after about 3 weeks vs untreated controls, 100% = plants have died
Method: as §3

[9] = system: DIGSA; test: Post-emergence herbicidal effect against DIGSA; format: in vivo, Digitaria sanguinalis; conditions: one-leaf stage, 80 g/ha, assessed visually after about 3 weeks vs untreated controls, 100% = plants have died
Method: as §3

[10] = system: ECHCG; test: Post-emergence herbicidal effect against ECHCG; format: in vivo, Echinochloa crus-galli; conditions: one-leaf stage, 80 g/ha, assessed visually after about 3 weeks vs untreated controls, 100% = plants have died
Method: as §3

[11] = system: LOLRI; test: Post-emergence herbicidal effect against LOLRI; format: in vivo, Lolium rigidum; conditions: one-leaf stage, 80 g/ha, assessed visually after about 3 weeks vs untreated controls, 100% = plants have died
Method: as §3

Row | SMILES | Pre-emergence action [%] against ALOMY [1] [%] | Pre-emergence action [%] against AVEFA [2] [%] | Pre-emergence action [%] against DIGSA [3] [%] | Pre-emergence action [%] against LOLRI [4] [%] | Pre-emergence action [%] against SETVI [5] [%] | Pre-emergence action [%] against ECHCG [6] [%] | Post-emergence action [%] against ALOMY [7] [%] | Post-emergence action [%] against SETVI [8] [%] | Post-emergence action [%] against DIGSA [9] [%] | Post-emergence action [%] against ECHCG [10] [%] | Post-emergence action [%] against LOLRI [11] [%]
1 | CC#Cc1cc(Cl)c(C2=C(OC(=O)OCC)C3(CCC(OCCOC)CC3)NC2=O)c(CC)c1 (centres unmarked) [Example P23] | 100 | 80 | 100 | 100 | 100 | 100 | 80 | 80 |  |  | 
2 | CC#Cc1cc(Cl)c(C2=C(OC(=O)C(C)C)C3(CCC(OCC)CC3)NC2=O)c(CC)c1 (centres unmarked) [Example P31] | 100 | 90 | 100 | 100 | 100 | 100 | 100 | 100 |  |  | 
3 | CC#Cc1cc(Br)c(C2=C(OC(=O)OCC)C3(CCCC(OCCOC)C3)NC2=O)c(C2CC2)c1 (centres unmarked) [Example Q2] | 100 | 100 | 100 | 100 | 100 | 100 | 100 | 100 | 100 | 100 | 100
4 | CC#Cc1cc(Cl)c(C2=C(OC(=O)C(C)C)C3(CCC(OC)CC3)NC2=O)c(CC)c1 (centres unmarked) [Example P25] | 100 | 100 | 100 | 90 | 100 | 100 | 90 | 100 | 100 | 100 | 
5 | CC#Cc1cc(Br)c(C2=C(OC(=O)OCC)C3(CCCC(OCCOC)C3)NC2=O)c(CC)c1 (centres unmarked) [Example Q1] | 90 |  |  | 90 | 100 |  | 80 | 90 |  |  | 
6 | CC#Cc1cc(Cl)c(C2=C(OC(=O)OC)C3(CCC(OCCOC)CC3)NC2=O)c(CC)c1 (centres unmarked) [Example P28] | 100 | 80 | 100 |  | 100 | 100 |  | 80 |  | 80 | 
7 | CC#Cc1cc(C)c(C2=C(OC(=O)C(C)C)C3(CCC(CC)CC3)NC2=O)c(Cl)c1 (centres unmarked) [Example P1, 3-[2-Chloro-6-methyl-4-(prop-1-yn-1-yl)phenyl]-8-ethyl-2-oxo-1-azaspiro[4.5]dec-3-en-4-yl 2-methylpropanoate] |  |  |  |  |  |  |  | 100 |  |  | 
8 | CC#Cc1cc(Cl)c(C2=C(OC(=O)OCC)C3(CCC(OCC)CC3)NC2=O)c(CC)c1 (centres unmarked) [Example P22] | 100 | 90 | 100 | 100 | 100 | 100 |  | 100 | 90 | 90 | 
